Assay results: patent US20090044291A1, “DROUGHT-RESISTANT PLANTS AND METHOD FOR PRODUCING THE PLANTS” (D-Helix, priority 2006, published 2009)
Blank lines part the entries; values can stand above or below the molecule they belong to.

Key:
[1] = tested on: inducible RNAi transgenic plants (ABAR/CHLH expression); assay: Induction of RNAi by 17beta-estradiol in inducible RNAi lines; type: in vivo, Arabidopsis thaliana; settings: 10 μM 17beta-estradiol
Description: These constructs were introduced in Agrobacterium tumefaciens GV3101 strain and transformed into plants by floral infiltration. The homozygous T3 seeds of the transgenic plants were used for analysis. […] The seeds of the gun4-1, gun5-1 and cch mutants were a generous gift from Dr. J. Chory (The Salk Institute, La Jolla, Calif.). The seeds of the mutants hy1-1 (ABRC#: CS67), hy2-1 (CS68) and chl-2 (CS3362) were obtained from the Arabidopsis Biological Resource Center (ABRC). Except for the mutants hy1-1 and hy2-1 with the ecotype Ler as background, all the other mutants were isolated from the ecotype Columbia. Plants were grown in a growth chamber at 20-21° C. on Murashige-Skoog (MS) medium at about 80 μmol photons m^−2 s^−1, or in compost soil at about 120 μmol photons m^−2 s^−1 over a 16-h photoperiod.
For the treatment of seedlings of the inducible RNAi lines with 17beta-estradiol (Sigma) to induce down-regulation of ABAR/CHLH expression, 17beta-estradiol was diluted from 10 mM stock solution prepared in dimethyl sulfoxide (DMSO) to 10 μM, and equivalent volume of DMSO was included in the 17beta-estradiol-free-treated controls. […] The amounts of ABAR/CHLH protein were also determined at the same time by immunoblotting. […] The expression of ABAR/CHLH and some ABA-responsive genes was assessed by real-time PCR.

[2] = biological target: T1, Arabidopsis ABAR/CHLH (H subunit of Mg-chelatase) (Arabidopsis thaliana, UniProt Q9FNB0); assay: ABA binding assay with purified yeast-expressed ABAR/CHLH; settings: purified ABAR, 30 nM [3H]ABA, 1 to 1000-fold molar excess of competitor
T1 construct: 6xHis; made in house; host or cells: Pichia methanolica (Pichia Methanolica Expression kit, Invitrogen)
T1 sequence (Q9FNB0 50-1381): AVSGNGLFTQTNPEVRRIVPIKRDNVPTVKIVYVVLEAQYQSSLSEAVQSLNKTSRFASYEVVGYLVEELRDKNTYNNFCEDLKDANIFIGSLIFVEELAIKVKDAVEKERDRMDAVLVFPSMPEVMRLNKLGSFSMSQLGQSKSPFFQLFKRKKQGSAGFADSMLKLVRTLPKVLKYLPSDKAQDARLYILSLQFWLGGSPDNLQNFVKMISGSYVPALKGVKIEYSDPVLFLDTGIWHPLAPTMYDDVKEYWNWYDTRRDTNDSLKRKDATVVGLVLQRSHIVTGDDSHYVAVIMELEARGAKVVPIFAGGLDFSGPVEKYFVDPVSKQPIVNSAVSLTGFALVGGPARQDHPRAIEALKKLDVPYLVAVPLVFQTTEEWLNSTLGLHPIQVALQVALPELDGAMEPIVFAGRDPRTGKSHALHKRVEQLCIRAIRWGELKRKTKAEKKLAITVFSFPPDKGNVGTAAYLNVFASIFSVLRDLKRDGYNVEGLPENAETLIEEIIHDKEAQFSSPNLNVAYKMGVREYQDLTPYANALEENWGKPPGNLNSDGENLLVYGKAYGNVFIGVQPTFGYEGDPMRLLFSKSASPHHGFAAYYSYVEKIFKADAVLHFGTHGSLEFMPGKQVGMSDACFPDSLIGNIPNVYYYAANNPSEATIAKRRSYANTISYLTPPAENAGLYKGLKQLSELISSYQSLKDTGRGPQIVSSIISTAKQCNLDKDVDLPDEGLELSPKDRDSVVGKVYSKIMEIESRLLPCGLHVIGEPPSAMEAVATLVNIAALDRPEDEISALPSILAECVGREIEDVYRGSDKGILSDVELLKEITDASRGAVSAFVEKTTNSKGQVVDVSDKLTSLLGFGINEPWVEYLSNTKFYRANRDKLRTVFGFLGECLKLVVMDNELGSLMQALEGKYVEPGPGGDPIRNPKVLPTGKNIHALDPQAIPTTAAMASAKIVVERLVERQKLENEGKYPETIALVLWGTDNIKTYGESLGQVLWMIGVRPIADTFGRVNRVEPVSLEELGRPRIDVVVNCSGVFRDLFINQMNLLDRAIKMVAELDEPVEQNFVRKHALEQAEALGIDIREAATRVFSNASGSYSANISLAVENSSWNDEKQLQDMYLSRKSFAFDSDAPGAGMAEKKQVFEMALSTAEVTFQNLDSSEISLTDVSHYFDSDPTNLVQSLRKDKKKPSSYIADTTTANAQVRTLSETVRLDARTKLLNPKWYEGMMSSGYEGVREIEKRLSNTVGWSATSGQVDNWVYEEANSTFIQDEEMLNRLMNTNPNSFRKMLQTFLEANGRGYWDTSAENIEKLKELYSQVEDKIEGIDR
Protocol: Full-length ABAR/CHLH coding sequence was PCR-amplified with forward primer 5′-[…]-3′ (SEQ ID NO:30) and reverse primer 5′-[…]-3′ (SEQ ID NO:31). The recombinant ABAR/CHLH was expressed in yeast as a fusion protein with a 6×His (SEQ ID NO:32) tag by using Pichia Methanolica Expression kit (Invitrogen) and the fusion protein was affinity-purified according to manufacturer's instructions.
The ABA-binding activity of ABAR was assayed according to the previously described procedures (Zhang, D. P. et al., Plant physiol. 128:714-725 (2002)) with modifications. The binding medium (medium A) contained 50 mM Tris-HCl (pH 7.0), 2 mM MgCl2, 1 mM CaCl2, and 250 mM mannitol. The medium for extracting the Arabidopsis natural ABAR/CHLH protein (medium B) was the medium A supplemented with 2 mM 1,4-dithiothreitol (DTT), 1 mM phenylmethyl sulfonyl fluoride (PMSF), […] leupeptin, and […] pepstin A but minus 250 mM mannitol. [^3H](+)ABA (American Radiolabeled Chemicals, 2.37×10^12 Bq mmol^−1, purity 98.4%) at 30 nM, or at a step gradient of concentrations from 0 to 70 nM (when analyzing ABA binding kinetics, see FIG. 1a, d1), together with 2 μg purified yeast-expressed ABAR/CHLH protein or 50 μg proteins of the crude extracts from two-week-old Arabidopsis seedlings, was added into the medium A. The total volume for the binding assays was adjusted to 200 μl. The mixtures were incubated at 25° C. for 30 min, and then quickly placed on ice. Following the addition of 100 μl 0.5% (w/v) Dextran T70-coated charcoal (DCC) to remove the free [^3H]ABA by adsorption, the mixtures were maintained on ice for 5 min, and then centrifuged to remove DCC before the radioactivity in the supernatant was counted. The specific binding was determined by the difference between the radioactivity bound to the immuno-purified ABAR protein or crude extracts of Arabidopsis seedlings incubated only with [^3H]ABA (total binding) and radioactivity bound in the presence of 1,000-fold molar excess of unlabeled (+)-ABA (Sigma; non-specific binding. Non-specific binding in all the assays was lower than 10% of the total binding, see FIG. 1a, d1). The unlabeled ABA was added into the incubation medium at the same time with [^3H]ABA. The ABA-binding activity of the crude ABA-binding protein from Arabidopsis seedling was expressed as the number of nanomoles of [^3H]ABA specifically bound per gram of protein, and that of the immuno-purified ABAR protein as the number of moles of [^3H]ABA per mole of protein. The stereo-specificity of the ABA-binding was assayed as described previously (Zhang, D. P. et al., Plant physiol. 128:714-725 (2002)). […] The conditions of incubation were the same as described above (the incubation medium containing 30 nM [^3H]ABA), and the two ABA isomers and (+)-ABA were assayed in the concentrations ranging from 1 to 1000-fold molar excess of [^3H]ABA.

gl1 plants = assay: Treatments with norflurazon and chloramphenicol; type: in vivo, Arabidopsis thaliana
Protocol: The reagent chloramphenicol (Sigma; CP) was diluted from 100 mg/ml stock solutions prepared in ethanol to 150 μg/ml, and equivalent volume of ethanol was included in the chloramphenicol-free-treated controls. For norflurazon (Sigma; Nf) treatment, Nf was diluted from 100 mM stock solutions prepared in DMSO to 3 μM, and equivalent volume of DMSO was included in the Nf-free-treated controls. The 3-week-old seedlings were treated with CP or Nf by irrigation of either 150 μg/ml CP or 3 μM Nf dissolved both in distilled water. Stomatal response to exogenous (±)-ABA was assayed at different time intervals after the application of the reagents, and the amounts of ABAR/CHLH protein were immuno-determined at the same time.
ABA contents in tissues were assayed by radioimmunoassay method as described previously (Zhang, D. P. et al., Plant physiol. 128:714-725 (2002)).

[3] = biological target: T2, natural ABAR/CHLH protein (Arabidopsis thaliana, UniProt Q9FNB0); assay: Pull-down assay with anti-ABAR serum; type: binding; settings: 30 nM [3H](+)ABA
T2 construct: 50 μg proteins of the crude extracts from two-week-old Arabidopsis seedlings; from tissue; host or cells: crude extracts of two-week-old Arabidopsis seedlings / leaves of gl1 (WT), RNAi line 12 and overexpressor line 1
T2 sequence (Q9FNB0 50-1381): T1 sequence (Q9FNB0 50-1381)
Protocol: The pull down assay was done as follows to detect ABA binding to the natural ABAR/CHLH protein. Total proteins were extracted from two-week-old Arabidopsis seedlings with the medium C composed of the medium B supplemented with 250 mM mannitol. The crude extracts (3 mg total proteins) was incubated by gently shaking in the medium C (400 μl) containing 30 nM [^3H](+)ABA at 4° C. for 2 h, and the anti-ABAR^N serum (10 μg, described below) was added into the medium for a further incubation at 4° C. for 2 h, and then the medium was supplemented by 100 μl 25% (v/v) protein A-agarose (Santa Cruz) for a final incubation at 4° C. for 2 h. Following the incubation, protein A-agarose was recovered by a brief centrifugation and washed with 1 ml medium C. The pellets were resuspended in […] water and mixed with scintillation fluid before the radioactivity (d.p.m., disintegrations per minute) of the bound [^3H](+)ABA was measured.
Three independent control experiments were performed for the pull down assays. A control was done by addition of the same amounts of mouse preimmune serum instead of the antiserum to the medium of the above-described pull down assay in the extracts from the leaves of wild-type plants. […]

Molecule: C[C@]12CC[C@@H]3c4ccc(O)cc4CC[C@H]3[C@@H]1CC[C@@H]2O [17beta-estradiol]
ABAR transcript and product / ABAR levels [1]: significant decline
ABAR transcript and product / ABAR levels ([1]; listed as 17beta-oestradiol): decrease

Molecule: CC1=CC(=O)CC(C)(C)C1(O)/C=C/C(C)=C\C(=O)O (single isomer, unassigned; (-)) [(−)-ABA]
displacement of [3H](+)-ABA binding [2]: not

Molecule: CNc1cnn(-c2cccc(C(F)(F)F)c2)c(=O)c1Cl [norflurazon]
ABA contents (gl1 plants; Nf-treated plants, 3 μM by irrigation): remained unchanged

Molecule: O=C(N[C@H](CO)[C@H](O)c1ccc([N+](=O)[O-])cc1)C(Cl)Cl [chloramphenicol]
ABA contents (gl1 plants; CP-treated plants, 150 μg/ml by irrigation): remained unchanged
ABAR levels (gl1 plants; after CP treatment (FIG. 9)): decrease
stomatal movement response to ABA (gl1 plants; after CP treatment (FIG. 9), 10 μM (±)-ABA): ABA-insensitive

displacement of [3H](+)-ABA binding [2]: not
Molecule: CC(C=CC1(O)C(C)=CC(=O)CC1(C)C)=CC(=O)O (stereo not drawn) [trans-ABA]

displacement of [3H]ABA / stereospecificity of pulled-down ABA-binding activity [3]: highly stereospecific
displacement of [3H](+)-ABA binding [2]: efficient displacement
Molecule: (+)-ABA
